The term IC50 denotes the midpoint of a concentration-inhibition curve.

The values that follow come from patent US20190275012A9, “SUBSTITUTED THIAZOLO-PYRIDINE COMPOUNDS AS MALT1 INHIBITORS” (Lupin Limited, priority 2016, published 2019).

One test deals with T1, full length MALT1 enzyme (Homo sapiens, UniProt Q9UDY8).
T1 construct: a fluorescence based assay with full length MALT1 enzyme
T1 sequence (Q9UDY8 1-824): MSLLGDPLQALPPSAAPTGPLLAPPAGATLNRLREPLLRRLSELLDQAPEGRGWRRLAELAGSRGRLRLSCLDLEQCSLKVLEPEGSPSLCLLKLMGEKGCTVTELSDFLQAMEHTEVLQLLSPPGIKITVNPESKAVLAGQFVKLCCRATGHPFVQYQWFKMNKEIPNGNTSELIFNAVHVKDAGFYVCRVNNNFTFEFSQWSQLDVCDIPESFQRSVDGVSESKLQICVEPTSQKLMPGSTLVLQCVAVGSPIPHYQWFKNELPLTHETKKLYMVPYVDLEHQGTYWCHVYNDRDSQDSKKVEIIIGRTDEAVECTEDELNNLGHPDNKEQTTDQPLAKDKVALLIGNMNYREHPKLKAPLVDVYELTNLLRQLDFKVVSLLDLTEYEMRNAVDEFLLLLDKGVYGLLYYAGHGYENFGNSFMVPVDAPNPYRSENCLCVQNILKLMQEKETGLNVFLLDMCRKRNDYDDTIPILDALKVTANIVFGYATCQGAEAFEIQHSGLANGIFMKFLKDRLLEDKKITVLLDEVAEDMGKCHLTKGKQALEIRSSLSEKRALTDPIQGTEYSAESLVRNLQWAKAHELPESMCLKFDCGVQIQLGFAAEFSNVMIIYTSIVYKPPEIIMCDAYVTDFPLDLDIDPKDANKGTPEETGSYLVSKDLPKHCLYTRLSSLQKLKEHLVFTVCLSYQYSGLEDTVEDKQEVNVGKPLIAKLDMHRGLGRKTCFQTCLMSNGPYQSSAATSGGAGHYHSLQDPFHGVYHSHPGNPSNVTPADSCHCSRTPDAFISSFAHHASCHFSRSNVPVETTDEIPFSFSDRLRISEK
Briefly: MALT1 biochemical assay (fluorescence based, Ac-Leu-Arg-Ser-Arg-AMC cleavage). To be noted: full length MALT1 protein, 2 h pre-incubation at RT, tetrapeptide substrate Ac-Leu-Arg-Ser-Arg-AMC, read-out: Malt 1 inhibition IC50. The procedure: The biochemical potency of the MALT1 inhibitors was tested by using a fluorescence based assay with full length MALT1 enzyme. The assay principle makes use of the preferential cleavage by MALT1 after the Arginine residue. Thus, the substrate used is a tetrapeptide (Ac-Leu-Arg-Ser-Arg-AMC; Catalogue # SMAMC013, SM Biochemicals) which is cleaved by active MALT1 releasing the AMC which is fluorescent. Upon addition of the MALT1 protease inhibitors, the proteolytic activity (and accordingly AMC fluorescence) is reduced in a dose dependent manner. The kinetic characterization of the enzymatic reaction was measured by determining the Michaelis constant, Km, of the reaction (approximately 130=A/I). The assay buffer consisted of 50 mM MES, 150 mM NaCl, 0.1% w/v CHAPS, 1 M Ammonium citrate and 10 mM DTT (pH=7). The assay was established for the 384-well plate format using black microtiter square well plates (Optiplate 384-F, Perkin Elmer). The test compounds were dissolved in 100% DMSO at a stock concentration of 10 mM. Serial dilutions were made first in 100% DMSO. The final concentration of DMSO was 0.5% by wt.
For determining the extent of inhibition of MALT1 protease activity by MALT1 inhibitors, 10⇒| of the test compound solutions were pre-incubated with 10⇒| of MALT1 full length protein (100-300 ng protein/well) for 2 h at RT. This was followed by 10⇒| of substrate addition at a final concentration of 100⇒M for an additional 4-12 h. The increase in assay signal was linear over this period of time and proportional with increase in the enzyme content. The final concentrations of the test compounds typically ranged from 10000 nM to 0.03 nM in an alternate 3.16 and 3 serial dilutions. The positive control for the reaction contained enzyme and DMSO (without any test compound) and was considered to have 100% enzyme activity (0% inhibition) and the negative control containing only buffer and DMSO (without any enzyme) was considered to have no enzymatic activity (100% inhibition). The fluorescence was recorded in a Spectra Max plate reader, Molecular Devices, with a fluorescence excitation at 360 nm and emission recording at 460 nm. The fluorescence units were transformed to percentage inhibitions by using the positive and negative controls as references as per the following formula.
[formula] Positive control=Reaction containing enzyme+substrate+DMSO
Negative control=Reaction containing substrate+DMSO but no enzyme
The IC50 values of individual compounds were calculated with Non Linear Regression Analysis using Graph Pad Prism (Graph Pad software, Inc, USA).

Test [1] deals with NF-kB transcriptional activity in HEK-293-NF-kB-Luc cell line overexpressing MALT1. The experiment in a line: NF-kB reporter assay (luciferase, MALT1 stably overexpressed). The format is cell-based. To be noted: Homo sapiens, 24 h, HEK-293-NF-kB-Luc cells stably overexpressing MALT1, 24 h treatment, Bright Glo luminescence; read-out: NF-kB inhibition IC50. The protocol: The NF-⇐B reporter assay was performed to screen for MALT1 inhibition mediated reduction in the NF-⇐B transcriptional activity. For this purpose, MALT1 was stably overexpressed in HEK-293—NF-⇐B-Luc cell line. Cells were seeded in poly-D-lysine coated 96-well plates in a culture medium containing the selection markers (DMEM+10% FBS+50 |g/ml Hygromycin+500 |g/ml Geniticin) and allowed to adhere overnight. On the following day, cells were treated with various concentrations of test compounds for 24 h. After 24 h of treatment with test compounds, media was removed from each well and Bright Glo™ (Promega, USA) substrate was added and incubated for further 10 min at ambient temperature. Luminescence was measured for detection of NF-⇐B reporter activity. RLUs (Relative Luminescence Units) were directly proportional to the NF-⇐B activity. % inhibition of NF-⇐B activity was calculated relative to the samples containing media with 0.1% DMSO alone as per the following formula
For orientation: A reporter such as luciferase makes a cellular process visible.

With `COCC1CCCN(c2c(NC(=O)Nc3cnc(-n4nccn4)c(Cl)c3)cnc3sc(C)nc23)C1` (racemic) [Compound 50, (ě)-1-(5-Chloro-6-(2H-1,2,3-triazol-2-yl)pyridin-3-yl)-3-(7-(3-(methoxymethyl)piperidin-1-yl)-2-methylthiazolo[5,4-b]pyridin-6-yl)urea], the results for the concentration for half-maximal inhibition (IC50) (at full length MALT1 enzyme; in test [1]) were 1 to 50 nM and 101 to 500 nM, respectively.
For `COCC1CCCN(c2c(NC(=O)Nc3cnc(OC)c(Cl)c3)cnc3sc(C)nc23)C1` (racemic) [Compound 51, (ě)-1-(5-Chloro-6-methoxypyridin-3-yl)-3-(7-(3-(methoxymethyl)piperidin-1-yl)-2-methylthiazolo[5,4-b]pyridin-6-yl)urea], the IC50 at full length MALT1 enzyme was in the range of 51 to 100 nM; in test [1], 501 to 1500 nM.
For `COC1CCCN(c2c(NC(=O)Nc3cnc(-n4nccn4)c(Cl)c3)cnc3sc(C)nc23)C1` (racemic) [Compound 52, (ě)-1-(5-Chloro-6-(2H-1,2,3-triazol-2-yl)pyridin-3-yl)-3-(7-(3-methoxypiperidin-1-yl)-2-methylthiazolo[5,4-b]pyridin-6-yl)urea], in that order: 1 to 50 nM and 101 to 500 nM.
On to `Cc1nc2c(C(C)O)c(NC(=O)Nc3cnc(-n4nccn4)c(C(F)(F)F)c3)cnc2s1` (single isomer, unassigned) [Compound 71b, 1-(6-(2H-1,2,3-Triazol-2-yl)-5-(trifluoromethyl)pyridin-3-yl)-3-(7-(1-hydroxyethyl)-2-methylthiazolo[5,4-b]pyridin-6-yl)urea], for which the IC50 on full length MALT1 enzyme lay within 1 to 50 nM; in test [1], 1 to 100 nM.
On to `Cc1nc2c(C(C)N(C)C)c(NC(=O)Nc3cnc(-n4nccn4)c(C(F)(F)F)c3)cnc2s1` (single isomer, unassigned) [Compound 74b, 1-(6-(2H-1,2,3-Triazol-2-yl)-5-(trifluoromethyl)pyridin-3-yl)-3-(7-(1-(dimethylsmino)ethyl)-2-methylthiazolo[5,4-b]pyridin-6-yl)urea], for which the IC50 was 1 to 50 nM on full length MALT1 enzyme and 1 to 100 nM in test [1].
As for `COC(c1c(NC(=O)Nc2cnc(-n3nccn3)c(C(F)(F)F)c2)cnc2sc(C)nc12)C(C)C` (single isomer, unassigned) [Compound 78b, 1-(6-(2H-1,2,3-Triazol-2-yl)-5-(trifluoromethyl)pyridin-3-yl)-3-(7-(1-methexyl-methylpropyl)-2-methylthiazolo[5,4-b]pyridin-6-yl)urea], the IC50 lay in the range of 1 to 50 nM at full length MALT1 enzyme and 1 to 100 nM in test [1].
The matching figures for `COC(c1ccccc1)c1c(NC(=O)Nc2cnc(-n3nccn3)c(Cl)c2)cnc2sc(C)nc12` (single isomer, unassigned) [Compound 84b, 1-(5-Chloro-6-(2H-1,2,3-triazol-2-yl)pyridin-3-yl)-3-(7-(methoxy(phenyl)methyl)-2-methylthiazolo[5,4-b]pyridin-6-yl)urea]: 1 to 50 nM and 1 to 100 nM.
The matching figures for `COc1nc(-n2nccn2)c(C(F)(F)F)cc1NC(=O)Nc1cnc2sc(C)nc2c1C(C)OC` (single isomer, unassigned) [Compound 88b, 1-(2-Methoxy-6-(2H-1,2,3-triazol-2-yl)-5-(trifluoromethyl)pyridin-3-yl)-3-(7-(1-methoxyethyl)-2-methylthiazolo[5,4-b]pyridin-6-yl)urea]: 1 to 50 nM and 1 to 100 nM.
For `COc1nc(-n2nccn2)c(Cl)cc1NC(=O)Nc1cnc2sc(C)nc2c1C(C)OC` (single isomer, unassigned) [Compound 90a, 1-(5-Chloro-2-methoxy-6-(2H-1,2,3-triazol-2-yl)pyridin-3-yl)-3-(7-(1-methoxyethyl)-2-methylthiazolo[5,4-b]pyridin-6-yl)urea], the IC50 is 1 to 50 nM on full length MALT1 enzyme and 1 to 100 nM in test [1].
The matching figures for `CCC(OC)c1c(NC(=O)Nc2ccc(-n3nccn3)c(Cl)c2)cnc2sc(C)nc12` (single isomer, unassigned) [Compound 126b, 1-(3-Chloro-4-(2H-1,2,3-triazol-2-yl)phenyl)-3-(7-(1-methoxypropyl)-2-methylthiazolo[5,4-b]pyridin-6-yl)urea]: 1 to 50 nM and 1 to 100 nM.
Regarding `COC(C)c1c(NC(=O)Nc2cnc(-n3nccn3)c(C(F)(F)F)c2)cnc2sc(C)nc12` (single isomer, unassigned) [Compound 142a, 1-(6-(2H-1,2,3-Triazol-2-yl)-5-(trifluoromethyl)pyridin-3-yl)-3-(7-(1-methoxyethyl)-2-methylthiazolo[5,4-b]pyridin-6-yl)urea], the IC50 at full length MALT1 enzyme fell in the range of 1 to 50 nM; in test [1], 1 to 100 nM.
For `COC(=O)c1cc(Cl)cc(NC(=O)Nc2cnc3sc(C)nc3c2C(C)OC)c1` (single isomer, unassigned) [Compound 152b, Methyl 3-chloro-5-(3-(7-(1-methoxyethyl)-2-methylthiazolo[5,4-b]pyridin-6-yl)ureido)benzoate], in that order: 1 to 50 nM and 1 to 100 nM.
For `COc1nc(-n2nccn2)c(C(F)(F)F)cc1NC(=O)Nc1cnc2sc(C)nc2c1C(OC)C1CC1` (single isomer, unassigned) [Compound 155a, 1-(7-(Cyclopropyl(methoxy)methyl)-2-methylthiazolo[5,4-b]pyridin-6-yl)-3-(2-methoxy-6-(2H-1,2,3-triazol-2-yl)-5-(trifluoromethyl)pyridin-3-yl)urea], in that order: 1 to 50 nM and 1 to 100 nM.
The matching figures for `CCOC(C)c1c(NC(=O)Nc2cc(Cl)cnc2OC)cnc2sc(C)nc12` (single isomer, unassigned) [Compound 167b, 1-(5-Chloro-2-methoxypyridin-3-yl)-3-(7-(1-ethoxyethyl)-2-methylthiazolo[5,4-b]pyridin-6-yl)urea]: 51 to 100 nM and 1 to 100 nM.
As for `COC(C)c1c(NC(=O)Nc2ccc(-n3ccnn3)c(Cl)c2)cnc2sc(C)nc12` (single isomer, unassigned) [Compound 198b, (S) or (R)-1-(3-Chloro-4-(1H-1,2,3-triazol-1-yl)phenyl)-3-(7-(1-methoxyethyl)-2-methylthiazolo[5,4-b]pyridin-6-yl)urea], the IC50 on full length MALT1 enzyme was in the range of 1 to 50 nM; in test [1], 1 to 100 nM.
